Experimental data published in publication PMC10726354, “Design, Synthesis, and Biological Evaluation of Small-Molecule-Based Radioligands with Improved Pharmacokinetic Properties for Imaging of Programmed Death Ligand 1” (Journal of Medicinal Chemistry, 2023).
Where “and” joins values, the source holds several entries; their conditions need not be identical. Equal entries are not always repeated.

Experiments:
PC3 mock tumor = assay: Small-animal PET, uptake in mock tumor; conditions: for SUVmax PC3 mock tumor: tracer only; for SUVmax PC3 mock tumor +block: blocker i.v. before tracer: Cu-1 100 nmol 1, Cu-2 100 nmol 2, Cu-3 1000 nmol 4, Cu-4 500 nmol 4, Cu-6 250 nmol 1 (~5 min prior), Cu-5 100 nmol 5 (~30 min prior)
Protocol: (§1) Changes are reported as % change of the SUVmax of the PD-L1 expressing over the respective value of the mock tumor. Similarly, the effect of blocking is reported as % change of the SUVmax of the animal injected with cold compound over that of the animal that received tracer only.
(§2) Animal experiments were performed in accordance with the guidelines of the German Regulations for Animal Welfare, approved by the Saxonian Ethical Committee for Animal Experiments (reference number DD24.1-5131/449/49). Male athymic NMRI-nude mice (Rj: NMRI-Foxn1^nu/nu, Janvier Laboratories, Le Genest-Saint-Isle, France) between 8 and 22 weeks of age were used. Under general anesthesia, [∼10% desflurane (Baxter, Deerfield, IL, USA) in 30 vol % oxygen + air] and warming, the animals were subcutaneously injected with 3–5 × 10^6 PC3-PD-L1 and PC3-mock cells [in 50 μL PBS +50 μL Matrigel (Corning, Glendale, USA)] into the right and left thigh, respectively. Tumor growth was monitored three times a week by caliper measurements, and mice with tumor sizes above 7 mm were included in the experiments.
(§3) For PET studies, general anesthesia was induced as described above. PET and X-ray computed tomography (CT) were performed in a dedicated small animal nanoScan PET/CT scanner, with four animals imaged simultaneously (Mediso, Budapest, Hungary). CT images were employed for attenuation correction and anatomical referencing. Animals received three individual scans corresponding to 0–2 h (dynamic) and 4.5 and 24 h (static) postinjection.
(§4) PD-L1 radiotracer candidates (in 300 μL sterile 0.9% NaCl/HEPES buffer, pH 6–7, between 7 and 12 MBq, molar activities > 12 GBq/μmol) were delivered over 30 s i.v. (lateral tail vein) and PET acquisition started simultaneously. For blocking condition, a defined quantity of compound (the same unlabeled compound, one from the same series or BMS-1166) was diluted in sterile saline and injected i.v. approximately 5 min prior to the radiotracer. Animals not subjected to blocking were injected with vehicle at the same time.
(§5) Three-dimensional list mode data were binned using the 400–600 keV energy window and sorted into 36 time frames (15 × 10 s, 5 × 30 s, 5 × 60 s, 4 × 300 s, 3 × 600 s, 4 × 900 s). Time frames were reconstructed using the Tera-TomoTM 3D algorithm applying a voxel size of 0.4 mm and corrections for decay, scatter, and attenuation.
(§6) Three-dimensional volumes of interest were delineated applying fixed thresholding at 35% of the measured maximum intensity. Standardized uptake values (SUV = [MBq detected activity/mL tissue]/[MBq injected activity/g body weight], […]) were determined in selected volumes of interest, among these PD-L1 and mock tumors.
(§7) 14. In vivo: PET- SUV data
(§8) Standardized uptake values (SUVmax)
(§9) Supplementary table 1: In vivo standardized uptake values (SUVmax ± standard deviation) of 64Cu-labeled third series compounds [64Cu]Cu-1-6 at 1.5 (1–2), 4.5 (4–5) and 24.5 (24–25) hours
(§10) post injection (p.i.). Compounds used for blocking are described for each tracer and were intravenously injected in sterile saline at stated time before the radiotracer. Animals designated for
(§11) tracer-only received matched type and volume of vehicle at the same time.

[1] = tested on: PC3 PD-L1-overexpressing tumor; assay: Small-animal PET, uptake in PD-L1-overexpressing tumor; conditions: for SUVmax PC3 PD-L1 overexpressing tumor: tracer only; for SUVmax PC3 PD-L1 overexpressing tumor +block: blocker i.v. before tracer: Cu-1 100 nmol 1, Cu-2 100 nmol 2, Cu-3 1000 nmol 4, Cu-4 500 nmol 4, Cu-6 250 nmol 1 (~5 min prior), Cu-5 100 nmol 5 (~30 min prior)
Protocol: as §1, §2, §3, §4, §5, §6, §7, §8, §9, §10, §11

[2] = Small-animal PET, excretion pattern; type: in vivo, mouse; conditions: PET 0–2, 4–5 and 24–25 h p.i., i.v.
Protocol: Time points of PET imaging were 0–2, 4–5, and 24–25 h post injection (p.i.).

[3] = Kinetic stability in PBS buffer (pH 7.4), radio-HPLC; type: physicochemical; conditions: room temperature; for intact radioligand in PBS (pH 7.4): radio-HPLC at 1, 24 and 48 h
Protocol: The kinetic stability of all ^64Cu-labeled ligands was investigated in PBS buffer solution (pH 7.4) by incubation at room temperature and monitoring with radio-HPLC up to 48 h. […] During the time course, no changes in peak number/shape and retention time were observed, proving the stability of the compounds. […] At the 48 h time point, however, a shoulder appears with a slightly higher retention time (∼7.0 min), indicating minor decomposition (>94% intact radiotracer).
The corresponding radiotracer was labeled with approximately 500 MBq of ^64Cu in 50 μL of HEPES solution (adjusted to pH 4.5), as described above. After successful labeling, 450 μL of PBS solution (pH 7.4) was added, and the incubation was performed (room temperature) at 300 rpm. At each time point (1, 24, and 48 h), an aliquot was withdrawn and injected into the radio-HPLC (PerkinElmer, Massachusetts, United States system C or D, Supporting Information). Evaluation and graphical plotting were performed with OriginPro 9.0.

[4] = Proteolytic stability in human serum, radio-HPLC; type: in vitro ADME; conditions: 37 °C
Protocol: Potential degradation of the ^64Cu-labeled radiotracers by proteolysis was investigated by incubation in human serum at 37 °C for up to 48 h. At three different time points (1, 24, and 48 h), a sample was withdrawn, and serum proteins were precipitated. The radio-HPLC chromatograms of all ^64Cu-labeled radiotracers (Figure S111A–D, system D) show a major peak at ∼6.4–6.7 min indicating the radiotracers. After 1 h, the radiotracers [^64Cu]Cu-3–6 are 94.1, 98.3, 94.0, and 96.3% intact, respectively.
Similar to PBS stability studies, the mixture containing the radiolabeled compound was diluted 1:10 with human serum. The solution was incubated at 37 °C with shaking at 300 rpm. At each time point (1, 24, and 48 h), an aliquot was withdrawn and added to a double amount of “supersol” (water containing 20% v/v EtOH, 5% v/v 5 mM aqueous EDTA, 0.5% v/v Triton X-100, 0.1% m/v saponin, 0.05% v/v 0.5 mM aqueous o-phenanthroline) to precipitate serum proteins. The suspension was cooled on ice for 5 min and then centrifugated for 5 min at 12,000g. A small amount of the supernatant was analyzed by radio-HPLC (PerkinElmer, Massachusetts, United States system D, Supporting Information). Evaluation and graphical plotting were performed with OriginPro 9.0.

[5] = 1–2 h (1.5 h) p.i., blocker: Cu-3 1000 nmol 4, Cu-4 500/1000 nmol 4, Cu-5 100 nmol 5, Cu-6 250 nmol BMS-1166
[6] = 4–5 h (4.5 h) p.i., blocker: Cu-3 1000 nmol 4, Cu-4 500/1000 nmol 4, Cu-5 100 nmol 5, Cu-6 250 nmol BMS-1166

SMILES | SUVmax PC3 mock tumor (PC3 mock tumor; 1.5 (1–2) hours p.i.) | SUVmax PC3 mock tumor +block (PC3 mock tumor; 1.5 (1–2) hours p.i.) | SUVmax PC3 mock tumor (PC3 mock tumor; 4.5 (4–5) hours p.i.) | SUVmax PC3 mock tumor +block (PC3 mock tumor; 4.5 (4–5) hours p.i.) | SUVmax PC3 mock tumor (PC3 mock tumor; 24.5 (24–25) hours p.i.) | SUVmax PC3 mock tumor +block (PC3 mock tumor; 24.5 (24–25) hours p.i.) | SUVmax PC3 PD-L1 overexpressing tumor ([1]; 1.5 (1–2) hours p.i.) | SUVmax PC3 PD-L1 overexpressing tumor +block ([1]; 1.5 (1–2) hours p.i.) | SUVmax PC3 PD-L1 overexpressing tumor ([1]; 4.5 (4–5) hours p.i.) | SUVmax PC3 PD-L1 overexpressing tumor +block ([1]; 4.5 (4–5) hours p.i.) | SUVmax PC3 PD-L1 overexpressing tumor ([1]; 24.5 (24–25) hours p.i.) | SUVmax PC3 PD-L1 overexpressing tumor +block ([1]; 24.5 (24–25) hours p.i.) | intact radioligand in PBS (pH 7.4) [3] [%] | intact radiotracer in human serum after 1 h [4] [%] | blocking effect: % change of SUVmax in PD-L1 tumor vs tracer-only [1, 5] | % change of SUVmax of the PD-L1 expressing tumor over the mock tumor ([1]; 1–2 h p.i.) [%] | blocking effect: % change of SUVmax in PD-L1 tumor vs tracer-only [1, 6] | other results
Cc1c(COc2cc(OCc3cncc(C#N)c3)c(CN[C@@H](CS(=O)(=O)O)C(=O)NCCS(=O)(=O)O)cc2Cl)cccc1-c1cccc(OCc2cn(CCCN3CCN(C(=O)[C@H](CS(=O)(=O)O)NC(=O)CC[C@H](C(=O)O)N4CCN(CC(=O)O)CCN(CC(=O)O)CC4)CC3)nn2)c1C.[64Cu+2] [[^64Cu]Cu-1] | 1.0 | 1.4 | 0.8 | 1.0 | 1.2 | 0.7 | 1–1.5 | 1.3 | 1.1 | 1.0 | 1.4 | 1.1 | – | – | – | – | – | blocking effect on SUVmax in the mock tumor (PC3 mock tumor; 24–25 h p.i., blocker: Cu-1, Cu-2 100 nmol unlabeled compound, Cu-3 1000 nmol 4): −41 to −54%; SUVmax PC3 PD-L1 overexpressing tumor ([1]; 1.5 (1–2) hours p.i., listed as [64Cu]Cu-1): 1.5; excretion / clearance pattern (PET) [2]: mixed hepatobiliary and renal clearance
Cc1c(COc2cc(OCc3cncc(S(C)(=O)=O)c3)c(CN[C@@H](CS(=O)(=O)O)C(=O)NCCP(=O)(O)O)cc2Cl)cccc1-c1cccc(OCc2cn(CCCN3CCN(C(=O)[C@H](CS(=O)(=O)O)NC(=O)CC[C@H](C(=O)O)N4CCN(CC(=O)O)CCN(CC(=O)O)CC4)CC3)nn2)c1C.[64Cu+2] [[^64Cu]Cu-5] | 0.80 ± 0.10 | 0.75 ± 0.05 | 1.1 ± 0.1 | 0.85 ± 0.05 | 1.05 ± 0.65 | 1.6 ± 0.00 | 3.25 | 1.75 ± 0.35 | 1.75 | 1.65 ± 0.15 | 1.2 | 1.55 ± 0.05 | > 99 | 94.0 | −46% | 306 | −6% and −5% | SUVmax PC3 PD-L1 overexpressing tumor ([1]; 1.5 (1–2) hours p.i., listed as [64Cu]Cu-5): 3.25 ± 0.25; % change of SUVmax of the PD-L1 expressing tumor over the mock tumor ([1]; 4–5 h p.i.): +59%; SUVmax PC3 PD-L1 overexpressing tumor ([1]; 4.5 (4–5) hours p.i., listed as [64Cu]Cu-5): 1.75 ± 0.15; blocking effect: % change of SUVmax in PD-L1 tumor vs tracer-only ([1]; 24–25 h (24.5 h) p.i., blocker: Cu-1, Cu-2 100 nmol unlabeled compound, Cu-3 1000 nmol 4, Cu-4 500/1000 nmol 4, Cu-5 100 nmol 5, Cu-6 250 nmol BMS-1166): +29%; % change of SUVmax of the PD-L1 expressing tumor over the mock tumor ([1]; 24–25 h p.i.): +14%; SUVmax PC3 PD-L1 overexpressing tumor ([1]; 24.5 (24–25) hours p.i., listed as [64Cu]Cu-5): 1.2 ± 0.8
Cc1c(COc2cc(OCc3cncc(S(C)(=O)=O)c3)c(CN[C@@H](CS(=O)(=O)O)C(=O)NCCP(=O)(O)O)cc2Cl)cccc1-c1cccc(OCc2cn(CCCN3CCN(C(=O)[C@H](CP(=O)(O)O)NC(=O)CC[C@H](C(=O)O)N4CCN(CC(=O)O)CCN(CC(=O)O)CC4)CC3)nn2)c1C.[64Cu+2] [[^64Cu]Cu-6] | 0.83 ± 0.08 | 1.04 ± 0.15 | 1.35 ± 0.15 | 1.7 ± 0.1 | 2.2 ± 0.2 | 3.05 ± 0.35 | 1.83 ± 0.37 | 2.28 ± 0.46 | 1.55 ± 0.05 | 1.8 ± 0.3 | 2.2 ± 0.1 | 2.3 ± 0.4 | > 99 | 96.3 | +25% | 121 | +16% | intact radiotracer in PBS (pH 7.4) at 48 h ([3]; 48 h): > 94%; intact radiotracer in human serum at 48 h ([4]; 48 h): 93.4%; blocking effect of BMS-1166 on SUVmax / tumor uptake ([1]; any time point, Cu-3: 750 nmol BMS-1166 intraperitoneally 60 min prior, Cu-6: 250 nmol BMS-1166 5 min before): no blocking effect
